{
  "source": "patent US20150315188A1",
  "about": "“COMPOUNDS AND METHODS FOR TREATMENT OF HYPERTENSION” (MEDIVATION TECHNOLOGIES, INC., priority 2012, published 2015)",
  "key": {"[1]": {"target": "T1, Human adrenergic α2B receptor (Homo sapiens, UniProt P18089)", "T1 sequence (P18089 1-450)": "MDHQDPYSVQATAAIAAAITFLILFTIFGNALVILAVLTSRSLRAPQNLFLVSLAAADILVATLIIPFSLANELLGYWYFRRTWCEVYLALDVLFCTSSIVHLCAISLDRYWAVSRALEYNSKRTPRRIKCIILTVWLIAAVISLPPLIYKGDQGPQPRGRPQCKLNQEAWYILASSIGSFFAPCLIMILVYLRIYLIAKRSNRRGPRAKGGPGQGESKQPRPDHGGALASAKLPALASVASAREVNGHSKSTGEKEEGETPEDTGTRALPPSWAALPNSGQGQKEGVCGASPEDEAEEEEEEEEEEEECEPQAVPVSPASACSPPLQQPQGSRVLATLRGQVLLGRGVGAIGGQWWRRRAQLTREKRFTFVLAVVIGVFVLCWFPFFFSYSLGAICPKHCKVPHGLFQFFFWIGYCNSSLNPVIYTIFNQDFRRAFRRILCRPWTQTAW", "assay": "Radioligand binding, adrenergic α2B (Protocol Group A)", "design": "expressed in transfected cells; host or cells: CHO-K1", "settings": "0.03 μM compound, [3H]Rauwolscine; for percent inhibition of specific binding, Adrenergic α2B: 0.03 µM; for inhibition at 0.03 µM: read-out: percent inhibition of specific binding, Adrenergic α2B", "procedure": "To evaluate in radioligand binding assays the activity of compounds of the invention, human recombinant adrenergic α2B receptor expressed in Chinese hamster ovary (CHO) K1 cells (Uhlen, S. et al, Eur. J. Pharmacol. 343(1):93, 1998) in a modified Tris-HCl buffer (50 mM Tris-HCl, pH 7.4, 12.5 mM MgCl2, 1 mM EDTA, 0.2% BSA) was used. Compounds of the invention were incubated with 2.5 nM [3H]Rauwolscine for 60 min at 25° C. Non-specific binding was estimated in the presence of 10 μM Prazosin. Receptor proteins were filtered and washed, the filters were then counted to determine [3H]Rauwolscine specifically bound. Compounds were screened at 1 μM or lower, using 1% DMSO as vehicle. Compounds of the invention were tested in this biochemical assay and percent inhibition of specific binding was determined. Biochemical assay results are presented as the percent inhibition of specific binding in Table B1a."}, "[2]": {"target": "T2, rat adrenergic α1B receptor (Rattus norvegicus, UniProt P15823)", "T2 construct": "rat adrenergic α1B receptor obtained from Wistar Rat liver; from tissue; host or cells: Wistar rat liver", "T2 sequence (P15823 1-515)": "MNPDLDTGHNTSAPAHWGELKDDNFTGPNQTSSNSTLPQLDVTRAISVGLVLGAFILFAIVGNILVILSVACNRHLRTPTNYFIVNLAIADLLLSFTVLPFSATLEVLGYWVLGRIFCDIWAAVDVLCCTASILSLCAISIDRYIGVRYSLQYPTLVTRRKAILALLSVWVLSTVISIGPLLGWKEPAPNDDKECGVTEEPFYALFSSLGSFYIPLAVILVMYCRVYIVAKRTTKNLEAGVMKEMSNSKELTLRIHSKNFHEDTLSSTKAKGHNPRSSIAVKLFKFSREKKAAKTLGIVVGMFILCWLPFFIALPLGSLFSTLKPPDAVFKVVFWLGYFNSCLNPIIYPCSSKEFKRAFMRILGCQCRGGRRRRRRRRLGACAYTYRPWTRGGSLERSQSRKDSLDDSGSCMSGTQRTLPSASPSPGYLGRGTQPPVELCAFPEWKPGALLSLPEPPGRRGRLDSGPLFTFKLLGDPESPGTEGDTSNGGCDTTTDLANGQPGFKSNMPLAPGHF", "assay": "Radioligand binding, adrenergic α1B (Protocol Group A)", "settings": "0.1 μM compound, [3H]Prazosin; for percent inhibition of specific binding, Adrenergic α1B: 0.1 µM; for inhibition at 0.1 µM: read-out: percent inhibition of specific binding, Adrenergic α1B", "procedure": "To evaluate in radioligand binding assays the activity of compounds of the invention, rat adrenergic α1B receptor obtained from Wistar Rat liver (Garcia-S'ainz, J. et al, Biochem. Biophys. Res. Commun. 186:760, 1992; Michel, A. et al, Br. J. Pharmacol. 98:883, 1989) in a modified Tris-HCl buffer (50 mM Tris-HCl buffer, pH 7.4, 0.5 mM EDTA) was used. Compounds of the invention were incubated with 0.25 nM [^3H]Prazosin for 60 min at 25° C. Non-specific binding was estimated in the presence of 10 μM phentolamine. Receptor proteins were filtered and washed, the filters were then counted to determine [^3H]Prazosin specifically bound. Compounds were screened at 1 μM or lower, using 1% DMSO as vehicle. Compounds of the invention were tested in this biochemical assay and percent inhibition of specific binding was determined. Biochemical assay results are presented as the percent inhibition of specific binding in Table B1a."}, "[3]": {"target": "T3, Human adrenergic α2A receptor (Homo sapiens, UniProt P08913)", "T3 sequence (P08913 1-465)": "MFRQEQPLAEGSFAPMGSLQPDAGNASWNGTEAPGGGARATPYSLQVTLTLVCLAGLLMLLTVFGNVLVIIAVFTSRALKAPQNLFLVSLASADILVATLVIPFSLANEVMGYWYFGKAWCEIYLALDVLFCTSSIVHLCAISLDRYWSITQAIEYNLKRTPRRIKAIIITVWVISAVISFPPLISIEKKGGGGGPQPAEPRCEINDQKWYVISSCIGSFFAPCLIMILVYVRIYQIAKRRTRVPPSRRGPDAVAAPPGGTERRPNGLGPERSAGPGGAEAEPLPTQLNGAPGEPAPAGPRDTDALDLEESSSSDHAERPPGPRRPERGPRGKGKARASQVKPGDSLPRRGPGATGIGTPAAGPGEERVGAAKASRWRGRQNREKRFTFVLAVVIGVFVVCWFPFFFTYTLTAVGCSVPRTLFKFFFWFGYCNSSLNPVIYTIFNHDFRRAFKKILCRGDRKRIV", "assay": "Radioligand binding, adrenergic α2A (Protocol Group A)", "design": "expressed in transfected cells; host or cells: insect Sf9 cells", "settings": "0.1 μM compound; for percent inhibition of specific binding, Adrenergic α2A: [3H]MK-912, 0.1 µM; for inhibition at 0.1 µM: [3H]MK-912, read-out: percent inhibition of specific binding, Adrenergic α2A", "procedure": "To evaluate in radioligand binding assays the activity of compounds of the invention, human recombinant adrenergic α2A receptor expressed in insect Sf9 cells (Uhlen, S. et al, J. Pharmacol. Exp. Ther. 271:1558, 1994) in a modified Tris-HCl buffer (50 mM Tris-HCl, pH 7.4, 12.5 mM MgCl2, 2 mM EDTA) was used. Compounds of invention were incubated with 1 nM [^3H]MK-912 for 60 min at 25° C. MK912 is (2S-trans)-1,3,4,5′,6,6′,7,12b-octahydro-1′,3′-dimethyl-spiro[2H-benzofuro[2,3-a]quinolizine-2,4′(1′H)-pyrimidin]-2′(3′H)-one hydrochloride. Non-specific binding was estimated in the presence of 10 μM WB-4101 (2-(2,6-Dimethoxyphenoxyethyl)aminomethyl-1,4-benzodioxane hydrochloride). Receptor proteins were filtered and washed, the filters were then counted to determine [^3H]MK-912 specifically bound. Compounds were screened at 1 μM or lower, using 1% DMSO as vehicle. Compounds of the invention were tested in this biochemical assay and percent inhibition of specific binding was determined. Biochemical assay results are presented as the percent inhibition of specific binding in Table B1a."}},
  "data": [
    {"smiles": "Cc1ccc(C(F)Cn2c3c(c4cccnc42)C2CCCN2CC3)cn1", "note": "(single isomer, unassigned) [10b]", "values": [
      {"measurement": "percent inhibition of specific binding, Adrenergic α2B", "setting": "[1]", "value": 16, "unit": "%"},
      {"measurement": "percent inhibition of specific binding, Adrenergic α1B", "setting": "[2]", "value": "−5", "unit": "%"},
      {"measurement": "percent inhibition of specific binding, Adrenergic α2A", "setting": "[3]", "value": "−1", "unit": "%"}
    ]},
    {"smiles": "Cc1ccc2c(c1)c1c(n2CCc2cncc(S(C)(=O)=O)c2)CCN(C)C1", "note": "[Compound No. 1, 2,8-dimethyl-5-(2-(5-(methylsulfonyl)pyridin-3-yl)ethyl)-2,3,4,5-tetrahydro-1H-pyrido[4,3-b]indole]", "values": [
      {"measurement": "inhibition at 0.03 µM", "setting": "[1]", "value": 64, "unit": "%"},
      {"measurement": "inhibition at 0.1 µM", "setting": "[2]", "value": 18, "unit": "%"},
      {"measurement": "inhibition at 0.1 µM", "setting": "[3]", "value": 3, "unit": "%"}
    ]},
    {"smiles": "Cc1ccc2c(c1)c1c(n2CC(OC(=O)N2CCCC2)c2ccncc2)CCN(C)C1", "note": "(single isomer, unassigned) [4a]", "values": [
      {"measurement": "percent inhibition of specific binding, Adrenergic α2B", "setting": "[1]", "value": 39, "unit": "%"},
      {"measurement": "percent inhibition of specific binding, Adrenergic α1B", "setting": "[2]", "value": 11, "unit": "%"},
      {"measurement": "inhibition at 0.1 µM", "setting": "[3]", "value": 21, "unit": "%"}
    ]},
    {"smiles": "Cc1ccc2c(c1)c1c(n2/C=C/c2ccncc2)CCN2CCCC12", "note": "(stereo not drawn) [Compound No. 7, (E)-10-methyl-7-(2-(pyridin-4-yl)vinyl)-2,3,5,6,7,11c-hexahydro-1H-indolizino[7,8-b]indole]", "values": [
      {"measurement": "inhibition at 0.03 µM", "setting": "[1]", "value": 108, "unit": "%"},
      {"measurement": "inhibition at 0.1 µM", "setting": "[2]", "value": 99, "unit": "%"},
      {"measurement": "inhibition at 0.1 µM", "setting": "[3]", "value": 93, "unit": "%"}
    ]},
    {"smiles": "Cc1ccc2c(c1)c1c(n2CC(OC(=O)N2CCCC2)c2ccncc2)CCN(C)C1", "note": "(stereo not drawn) [compound 4, 2-(2,8-dimethyl-3,4-dihydro-1H-pyrido[4,3-b]indol-5(2H)-yl)-1-(pyridin-4-yl)ethyl pyrrolidine-1-carboxylate]", "values": [
      {"measurement": "percent inhibition of specific binding, Adrenergic α2B", "setting": "[1]", "value": 78, "unit": "%"},
      {"measurement": "percent inhibition of specific binding, Adrenergic α1B", "setting": "[2]", "value": 27, "unit": "%"},
      {"measurement": "percent inhibition of specific binding, Adrenergic α2A", "setting": "[3]", "value": 33, "unit": "%"}
    ]},
    {"smiles": "c1cncc(CCn2c3c(c4ccccc42)C2CCCN2CC3)c1", "note": "(single isomer, unassigned) [2a]", "values": [
      {"measurement": "percent inhibition of specific binding, Adrenergic α2B", "setting": "[1]", "value": 102, "unit": "%"},
      {"measurement": "percent inhibition of specific binding, Adrenergic α1B", "setting": "[2]", "value": 28, "unit": "%"},
      {"measurement": "percent inhibition of specific binding, Adrenergic α2A", "setting": "[3]", "value": 31, "unit": "%"}
    ]},
    {"smiles": "Cc1ccc(C(F)Cn2c3c(c4cccnc42)C2CCCN2CC3)cn1", "note": "(single isomer, unassigned) [10a]", "values": [
      {"measurement": "percent inhibition of specific binding, Adrenergic α2B", "setting": "[1]", "value": 4, "unit": "%"},
      {"measurement": "percent inhibition of specific binding, Adrenergic α1B", "setting": "[2]", "value": "−3", "unit": "%"},
      {"measurement": "percent inhibition of specific binding, Adrenergic α2A", "setting": "[3]", "value": 0, "unit": "%"}
    ]},
    {"smiles": "Cc1ccc2c(c1)c1c(n2CC(OC(N)=O)c2ccncc2)CCN(C)C1", "note": "(stereo not drawn) [compound 8, 2-(2,8-dimethyl-3,4-dihydro-1H-pyrido[4,3-b]indol-5 (2H)-yl)-1-(pyridin-4-yl)ethyl carbamate]", "values": [
      {"measurement": "inhibition at 0.03 µM", "setting": "[1]", "value": 42, "unit": "%"},
      {"measurement": "inhibition at 0.1 µM", "setting": "[2]", "value": 1, "unit": "%"},
      {"measurement": "inhibition at 0.1 µM", "setting": "[3]", "value": 11, "unit": "%"}
    ]},
    {"smiles": "Cc1ccc2c(c1)c1c(n2CC(C)(O)c2ccc(F)nc2)CCN2CCCC12", "note": "(stereo not drawn) [6b]", "values": [
      {"measurement": "inhibition at 0.03 µM", "setting": "[1]", "value": 93, "unit": "%"},
      {"measurement": "inhibition at 0.1 µM", "setting": "[2]", "value": 61, "unit": "%"},
      {"measurement": "inhibition at 0.1 µM", "setting": "[3]", "value": 29, "unit": "%"}
    ]},
    {"smiles": "Cc1ccc2c(c1)c1c(n2C(CC(C)(C)C)C(=O)c2ccncc2)CCN(C)C1", "note": "(stereo not drawn) [compound 9, 2-(2,8-dimethyl-3,4-dihydro-1H-pyrido[4,3-b]indol-5 (2H)-yl)-4,4-dimethyl-1-(pyridin-4-yl)pentan-1-one]", "values": [
      {"measurement": "inhibition at 0.03 µM", "setting": "[1]", "value": 107, "unit": "%"},
      {"measurement": "inhibition at 0.1 µM", "setting": "[2]", "value": 77, "unit": "%"},
      {"measurement": "inhibition at 0.1 µM", "setting": "[3]", "value": 85, "unit": "%"}
    ]}
  ]
}
